Source: patent US20240208968A1, “ALPHA V BETA 6 AND ALPHA V BETA 1 INTEGRIN INHIBITORS AND USES THEREOF” (DiCE Molecules SV, Inc., priority 2021, published 2024)
Where a name gives a salt, the structure may show the parent alone.

Key:
αvβ6 = αvβ6 (Homo sapiens, UniProt P06756+P18564); assay: Solid Phase Integrin αvβ6 Assay; assay type: binding
Outline: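 Inhibition of αvβ6 binding to immobilized recombinant TGFb1-LAP (1 μg/mL coating), 1 h at room temperature with 1 mM MnCl2 in BSA/TBST buffer, integrin diluted to 0.2 μg/mL before addition. Streptavidin-HRP/TMB read-out; four-parameter logistic fitting gave IC50.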

αvβ1 = αvβ1 (Homo sapiens, UniProt P05556+P06756); assay: Solid Phase Integrin αvβ1 Assay; assay type: binding
Chain of αvβ1 (P06756 31-992 limits assumed): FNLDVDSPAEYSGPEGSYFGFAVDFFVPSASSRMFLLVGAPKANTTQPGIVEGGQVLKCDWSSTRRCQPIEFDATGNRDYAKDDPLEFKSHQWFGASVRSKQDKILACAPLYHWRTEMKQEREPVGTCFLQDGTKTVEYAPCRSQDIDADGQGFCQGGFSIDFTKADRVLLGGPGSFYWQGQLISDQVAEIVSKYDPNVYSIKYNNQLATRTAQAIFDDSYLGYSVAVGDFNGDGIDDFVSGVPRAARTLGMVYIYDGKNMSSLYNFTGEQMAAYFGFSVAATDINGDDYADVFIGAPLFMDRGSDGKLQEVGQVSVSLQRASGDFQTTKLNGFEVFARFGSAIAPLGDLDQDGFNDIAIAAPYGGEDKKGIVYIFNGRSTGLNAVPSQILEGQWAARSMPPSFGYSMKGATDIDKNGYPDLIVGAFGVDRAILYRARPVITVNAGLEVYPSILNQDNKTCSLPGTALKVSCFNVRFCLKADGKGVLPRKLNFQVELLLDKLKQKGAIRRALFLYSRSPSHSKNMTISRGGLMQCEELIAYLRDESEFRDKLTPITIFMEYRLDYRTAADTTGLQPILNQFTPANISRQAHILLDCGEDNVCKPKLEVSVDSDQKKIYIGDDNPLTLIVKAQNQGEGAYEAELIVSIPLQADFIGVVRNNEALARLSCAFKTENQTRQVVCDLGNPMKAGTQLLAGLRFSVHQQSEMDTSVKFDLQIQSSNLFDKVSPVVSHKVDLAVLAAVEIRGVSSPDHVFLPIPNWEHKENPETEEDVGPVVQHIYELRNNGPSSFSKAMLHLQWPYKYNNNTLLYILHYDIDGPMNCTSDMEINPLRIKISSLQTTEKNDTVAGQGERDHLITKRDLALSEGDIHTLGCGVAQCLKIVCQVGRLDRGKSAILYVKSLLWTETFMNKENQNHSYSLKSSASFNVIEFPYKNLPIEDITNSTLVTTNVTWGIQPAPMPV
Chain of αvβ1 (P05556 21-728 limits assumed): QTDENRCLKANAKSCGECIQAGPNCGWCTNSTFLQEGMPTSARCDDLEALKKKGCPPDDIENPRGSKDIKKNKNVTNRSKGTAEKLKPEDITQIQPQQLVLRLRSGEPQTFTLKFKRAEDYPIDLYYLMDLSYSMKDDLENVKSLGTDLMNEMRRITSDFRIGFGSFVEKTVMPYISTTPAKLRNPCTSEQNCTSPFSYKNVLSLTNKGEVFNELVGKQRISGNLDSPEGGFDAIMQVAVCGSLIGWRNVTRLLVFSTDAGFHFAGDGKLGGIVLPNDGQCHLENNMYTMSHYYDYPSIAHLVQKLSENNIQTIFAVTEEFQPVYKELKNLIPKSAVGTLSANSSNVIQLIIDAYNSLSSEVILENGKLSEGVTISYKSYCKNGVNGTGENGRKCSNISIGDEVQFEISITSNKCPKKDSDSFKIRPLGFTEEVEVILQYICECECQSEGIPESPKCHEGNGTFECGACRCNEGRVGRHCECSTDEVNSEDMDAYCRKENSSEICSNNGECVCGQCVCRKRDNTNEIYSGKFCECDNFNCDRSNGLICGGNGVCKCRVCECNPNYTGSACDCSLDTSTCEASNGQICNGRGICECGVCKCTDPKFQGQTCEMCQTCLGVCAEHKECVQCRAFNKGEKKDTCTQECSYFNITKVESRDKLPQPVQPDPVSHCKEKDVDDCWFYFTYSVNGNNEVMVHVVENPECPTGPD
Outline: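 Compound competes for αvβ1 binding to immobilized TGFb1-LAP (1 µg/mL coat) in Mn2+ (1 mM MnCl2), 2% BSA binding buffer over 90 min at room temperature, integrin added at 0.2 µg/mL. Read-out: streptavidin-HRP/TMB; IC50 from Levenberg-Marquardt four-parameter fit.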

Chain of αvβ6 (P06756 31-992 limits assumed): as the sequence (P06756 31-992 limits assumed) above
Chain of αvβ6 (P18564 22-707 limits assumed): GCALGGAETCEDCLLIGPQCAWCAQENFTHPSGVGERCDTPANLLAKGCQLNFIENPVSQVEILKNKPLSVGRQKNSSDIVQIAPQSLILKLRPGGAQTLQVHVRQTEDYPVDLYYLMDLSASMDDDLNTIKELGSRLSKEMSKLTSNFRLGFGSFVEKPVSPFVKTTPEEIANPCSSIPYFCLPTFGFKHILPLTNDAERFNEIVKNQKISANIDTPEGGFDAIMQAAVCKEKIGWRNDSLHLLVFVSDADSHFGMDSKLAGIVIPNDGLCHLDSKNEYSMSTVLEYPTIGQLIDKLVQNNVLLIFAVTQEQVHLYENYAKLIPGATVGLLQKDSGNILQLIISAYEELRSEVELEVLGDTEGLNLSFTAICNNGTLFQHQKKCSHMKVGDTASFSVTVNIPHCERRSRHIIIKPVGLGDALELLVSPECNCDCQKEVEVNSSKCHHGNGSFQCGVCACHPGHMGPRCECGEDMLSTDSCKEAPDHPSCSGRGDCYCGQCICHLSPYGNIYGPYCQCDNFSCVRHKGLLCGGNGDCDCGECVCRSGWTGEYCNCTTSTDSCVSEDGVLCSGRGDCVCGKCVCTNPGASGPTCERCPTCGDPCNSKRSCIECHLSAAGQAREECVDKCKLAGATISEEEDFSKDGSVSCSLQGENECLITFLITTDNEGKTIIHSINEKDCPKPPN

SMILES | IC50 (αvβ6) [nM] | IC50 (αvβ1) [nM]
O=C(N[C@@H](CNC(=O)[C@@H]1CCCN(CCCc2ccc3c(n2)NCCC3)C1)C(=O)O)C1CC2CCC1CC2 (stereo partly drawn) [Compound 285, (2S)-2-(bicyclo[22.2]octane-2-carboxamido)-3-((R)-1-(3-(5,6,7,8-tetrahydro-1,8-naphthyridin-2-yl)propyl)piperidine-3-carboxamido)propanoic acid] | < 100 | < 100
O=C(O)[C@H](CCO[C@@H]1CCCN(CCCc2ccc3c(n2)NCCC3)C1)Nc1ncnc2ccccc12 [Compound 334] | < 100 | < 100
O=C(O)C[C@@H](CO[C@@H]1CCCN(CCCc2ccc3c(n2)NCCC3)C1)c1cccc([C@H]2CCOC2)c1 [Compound 507] | < 100 | < 100
O=C(NC[C@H](Nc1cncc(-c2ccccc2)c1)C(=O)O)[C@@H]1CCCN(CCCc2ccc3c(n2)NCCC3)C1 [Compound 361] | < 100 | < 100
O=C(O)C[C@H](CC[C@@H]1CCCN(CCCc2ccc3c(n2)NCCC3)C1)c1ccccc1 [Compound 298-B, 3-phenyl-5-((R)-1-(3-(5,6,7,8-tetrahydro-1,8-naphthyridin-2-yl)propyl)piperidin-3-yl)pentanoi c acid] | < 100 | < 100
O=C(CC[C@@H](C(=O)O)c1ccccc1)N[C@@H]1CCN(C(=O)CCCc2ccc3c(n2)NCCC3)C1 [Compound 419] | > 1000 | > 1000
O=C(NC[C@H](C(=O)O)c1cccc2cnn([C@@H]3CCOC3)c12)[C@@H]1CCCN(CCCc2ccc3c(n2)NCCC3)C1 [Compound 323] | < 100 | < 100
O=C(O)C[C@H](NC(=O)[C@@H]1CCCN(CCCc2ccc3c(n2)NCCC3)C1)c1cccc(C2CC2)c1F [Compound 559] | 100 to 1000 | > 1000
CC1(C)COCCN1c1cccc([C@@H](CNC(=O)[C@@H]2CCCN(CCCc3ccc4c(n3)NCCC4)C2)C(=O)O)c1 [Compound 597] | < 100 | < 100
O=C(NC[C@@H](C(=O)O)c1ccc(F)c(-c2ccccc2)c1)[C@@H]1CCCN(CCCc2ccc3c(n2)NCCC3)C1 [Compound 308] | 100 to 1000 | 100 to 1000
O=C(O)[C@@H](CCO[C@@H]1CCCN(CCc2ccc3c(n2)NCCC3)C1)Nc1ncnc2ccccc12 [Compound 406] | 100 to 1000 | 100 to 1000
O=C(O)C[C@@H](NC(=O)[C@@H]1CCCN(CCCc2ccc3c(n2)NCCC3)C1)c1cnc2ccccc2c1 [Compound 413] | < 100 | < 100
O=C(O)C[C@@H](NC(=O)[C@@H]1CCCN(CCCc2ccc3c(n2)NCCC3)C1)c1cccc2c1CCCO2 [Compound 216-B, 3-(chroman-5-yl)-3-((R)-1-(3-(5,6,7,8-tetrahydro-1,8-naphthyridin-2-yl)propyl)piperidine-3-carboxamido)propanoic acid] | > 1000 | > 1000
O=C(NC[C@H](C(=O)O)c1ccc2c(c1)CCCC2)[C@@H]1CCCN(CCCc2ccc3c(n2)NCCC3)C1 [Compound 248-A, 3-((R)-1-(3-(5,6,7,8-tetrahydro-1,8-naphthyridin-2-yl)propyl)piperidine-3-carboxamido)-2-(5,6,7,8-tetrahydronaphthalen-2-yl)propanoic acid] | 100 to 1000 | 100 to 1000
O=C(O)C[C@H](NC(=O)[C@@H]1CCCN(CCCc2ccc3c(n2)NCCC3)C1)c1cccc(Br)c1 [Compound 205, (S)-3-(3-bromophenyl)-3-((R)-1-(3-(5,6,7,8-tetrahydro-1,8-naphthyridin-2-yl)propyl)piperidine-3-carboxamido)propanoic acid hydrochloride] | < 100 | < 100
O=C(O)C[C@H](CO[C@@H]1CCCN(CCCc2ccc3c(n2)NCCC3)C1)c1cc(F)cc(C2CC2)c1 [Compound 483] | < 100 | < 100
O=C(O)C[C@@H](NC(=O)[C@@H]1CCCN(CCCc2ccc3c(n2)NCCC3)C1)c1ccc(F)c(C2CC2)c1 [Compound 244-B, 3-(3-cyclopropyl-4-fluorophenyl)-3-((R)-1-(3-(5,6,7,8-tetrahydro-1,8-naphthyridin-2-yl)propyl)piperidine-3-carboxamido)propanoic acid] | < 100 | < 100
C[C@@H]1C[C@@H](C(=O)NC[C@@H](C(=O)O)c2cccc(-c3ccccc3)c2)CN(CCCc2ccc3c(n2)NCCC3)C1 [Compound 640] | 100 to 1000 | 100 to 1000
O=C(NC[C@H](NC(=O)C12CCC(CC1)CC2)C(=O)O)[C@@H]1CCCN(CCCc2ccc3c(n2)NCCC3)C1 [Compound 270, (S)-2-(bicyclo[2.2.2]octane-1-carboxamido)-3-((R)-1-(3-(5,6,7,8-tetrahydro-1,8-naphthyridin-2-yl)propyl)piperidine-3-carboxamido)propanoic acid] | < 100 | < 100
O=C(O)C[C@H](CO[C@@H]1CCCN(CCCc2ccc3c(n2)NCCC3)C1)c1cccc([C@H]2CCOC2)c1 [Compound 493] | 100 to 1000 | 100 to 1000
O=C(O)C[C@H](NC(=O)[C@@H]1CCCN(CCCc2ccc3c(n2)NCCC3)C1)c1cc(F)cc(C(F)(F)F)c1 [Compound 208-B, 3-(3-fluoro-5-(trifluoromethyl)phenyl)-3-((R)-1-(3-(5,6,7,8-tetrahydro-1,8-naphthyridin-2-yl)propyl)piperidine-3-carboxamido)propanoic acid] | 100 to 1000 | > 1000
O=C(N[C@@H](CNC(=O)[C@@H]1CCCN(CCCc2ccc3c(n2)NCCC3)C1)C(=O)O)c1ccccc1 [Compound 544] | < 100 | < 100
O=C(N[C@@H](CNC(=O)[C@@H]1CCCN(CCCc2ccc3c(n2)NCCC3)C1)C(=O)O)c1ccc(Cl)cc1 [Compound 372] | < 100 | < 100
O=C(O)C[C@H](CO[C@@H]1CCCN(CCCCc2ccc3c(n2)NCCC3)C1)c1ccccc1 [Compound 357] | 100 to 1000 | 100 to 1000
CC(C)(C(=O)N[C@@H](CNC(=O)[C@@H]1CCCN(CCCc2ccc3c(n2)NCCC3)C1)C(=O)O)c1ccccc1 [Compound 546] | < 100 | < 100
O=C(O)C[C@@H](CO[C@@H]1CCCN(Cc2ccc3c(n2)NCCC3)C1)c1ccccc1 [Compound 355] | > 1000 | 100 to 1000
O=C(NC[C@@H](Nc1cccnc1C1CC(F)(F)C1)C(=O)O)[C@@H]1CCCN(CCCc2ccc3c(n2)NCCC3)C1 [Compound 593] | < 100 | < 100
O=C(O)C[C@H](CO[C@@H]1CCCN(CCCc2ccc3c(n2)NCCC3)C1)c1cccc(N2C[C@@H]3CC[C@H]2CO3)c1 [Compound 462] | < 100 | < 100

Next, values leading:

IC50 (αvβ6) [nM] | IC50 (αvβ1) [nM] | SMILES
< 100 | < 100 | O=C(N[C@@H](CNC(=O)[C@@H]1CCCN(CCCc2ccc3c(n2)NCCC3)C1)C(=O)O)c1ccncc1 [Compound 312]
< 100 | < 100 | O=C(O)C[C@@H](NC(=O)[C@@H]1CCCN(CCCc2ccc3c(n2)NCCC3)C1)c1ccc2nccnc2c1 [Compound 215-B, 3-(quinoxalin-6-yl)-3-((R)-1-(3-(5,6,7,8-tetrahydro-1,8-naphthyridin-2-yl)propyl)piperidine-3-carboxamido)propanoic acid]
> 1000 | > 1000 | O=C(CC[C@@H](NC(=O)C12CCC(CC1)CC2)C(=O)O)N[C@@H]1CCN(CCCCc2ccc3c(n2)NCCC3)C1 [Compound 427]
< 100 | < 100 | O=C(NC[C@H](NC(=O)[C@H]1CC2CCC1CC2)C(=O)O)[C@@H]1CCCN(CCCc2ccc3c(n2)NCCC3)C1 [Compound 305]
< 100 | < 100 | O=C(NC[C@H](C(=O)O)c1ccc(C2CC2)cc1)[C@@H]1CCCN(CCCc2ccc3c(n2)NCCC3)C1 [Compound 259-A, 2-(4-cyclopropylphenyl)-3-((R)-1-(3-(5,6,7,8-tetrahydro-1,8-naphthyridin-2-yl)propyl)piperidine-3-carboxamido)propanoic acid]
100 to 1000 | 100 to 1000 | O=C(NC[C@@H](C(=O)O)c1ccccc1-c1ccccc1)[C@@H]1CCCN(CCCc2ccc3c(n2)NCCC3)C1 [Compound 340]
< 100 | < 100 | CC1(C)CN(c2cccc([C@@H](CO[C@@H]3CCCN(CCCc4ccc5c(n4)NCCC5)C3)CC(=O)O)c2)CCC1(F)F [Compound 652]
100 to 1000 | 100 to 1000 | O=C(NC[C@H](C(=O)O)c1cc(F)cc(-c2ccccc2)c1)[C@@H]1CCCN(CCCc2ccc3c(n2)NCCC3)C1 [Compound 306]
> 1000 | > 1000 | O=C(O)[C@H](CO[C@@H]1CCCN(CCCCc2ccc3c(n2)NCCC3)C1)c1ccccc1 [Compound 395]
< 100 | < 100 | O=C(O)C[C@@H](NC(=O)[C@@H]1CCCN(CCCc2ccc3c(n2)NCCC3)C1)c1cc(F)cc(C(F)(F)F)c1 [Compound 208-A, 3-(3-fluoro-5-(trifluoromethyl)phenyl)-3-((R)-1-(3-(5,6,7,8-tetrahydro-1,8-naphthyridin-2-yl)propyl)piperidine-3-carboxamido)propanoic acid]
> 1000 | > 1000 | O=C(O)[C@@H](CO[C@@H]1CCCN(CCCCc2ccc3c(n2)NCCC3)C1)Nc1ncnc2ccccc12 [Compound 410]
< 100 | < 100 | O=C(O)[C@H](CCO[C@@H]1CCCN(CCc2ccc3c(n2)NCCC3)C1)NC(=O)C12CCC(CC1)CC2 [Compound 398]
< 100 | < 100 | O=C(O)C[C@H](CO[C@@H]1CCCN(CCCc2ccc3c(n2)NCCC3)C1)c1cccc(-n2cccn2)c1 [Compound 492]
> 1000 | > 1000 | O=C(O)[C@@](O)(CO[C@@H]1CCCN(Cc2ccc3c(n2)NCCC3)C1)c1ccccc1 [Compound 477]
